Results on nine compounds are retold here after patent publication US9174979B2, “Phenanthroindolizidine compound and NFκB inhibitor containing same as active ingredient” (KABUSHIKI KAISHA YAKULT HONSHA, priority 2008, dated 2015).

In series [1] the test system is mice. As to the kind of experiment: Animal toxicity test in mice transplanted with Meth A cells. Format: in vivo, mouse. To be noted: intravenous on days 1, 5, 9, observed for three weeks. As to the method: Also, the toxicity of known phenanthroindolizidine alkaloid compounds in mice, namely (12aS,13S)-6,7-dimethoxy-9,10,11,12,12a,13-hexahydro-9a-aza-cyclopenta[b]triphenylene-3,13-diol (known compound 1; refer to WO01/023384) and (12aS,13S)-3,6,7-trimethoxy-9,10,11,12,12a,13-hexahydro-9a-aza-cyclopenta[b]triphenylene-13-ol (known compound 2; refer to Planta Med., 2002, 68: 186-188), was simultaneously studied. To a control group, a physiological saline solution as a solvent, was administered.

The subject of series [2] is human non-small cell lung cancer A549 cells. Nature of the series: Inhibitory action on the proliferation of A549 cells. Format: cell-based. The note with it: 96 hours culture, TetraColor ONE; for IC50: Homo sapiens, A549. As to the method: (§1) The action of the phenanthroindolizidine alkaloid compound of the present invention on the proliferation of human colon cancer SW480 cells, HT-29 cells, and human non-small cell lung cancer A549 cells was studied. The SW480 cells were suspended in a 10% FBS/RPMI1640 and then seeded in a 96-well microplate, followed by culturing in 5% CO2 at 37° C. (2000 cells/well). The A549 cells and the HT-29 cells were each suspended in a DMEM medium containing 10% FBS, 100 U/mL penicillin, and 100 μg/mL streptomycin (10% FBS/DMEM) and a DMEM F-12 HAM medium containing 10% FBS, 100 U/mL penicillin, and 100 μg/mL streptomycin (10% FBS/DMEM F12 HAM), and then seeded in 96-well microplates, followed by culturing in 5% CO2 at 37° C. (1000 cells/well). After an overnight culture, the compound of the present invention was added, followed by further culturing for 48 hours (SW480 cells) and 96 hours (A549 cells and HT-29 cells). After culturing, the number of viable cells was counted using TetraColor ONE (Seikagaku Corporation) in accordance with the attached operating procedure. The results were expressed as the concentration of a test compound needed for 50% inhibition of the proliferation of the cells (IC50).

Series [3] relates to SV40 promoter. Nature of the series: SV40 promoter luciferase reporter assay in SW480/SV40-Luc cells. The note with it: for SV40 promoter inhibitory activity IC50: SW480/SV40-Luc cells, luciferase expression; for IC50: Homo sapiens, SW480, read-out: SV40 promoter inhibitory activity IC50. Type of series: cell-based, human. An excerpt: (§2) The action of the phenanthroindolizidine alkaloid compound of the present invention on the NFκB activity was studied in a luciferase assay. Human colon cancer SW480 cells were transfected with pNFκB-Luc Plasmid (Stratagene), which is a reporter vector in which a five-time tandem repeat of the NFκB responsive element (NRE) is integrated into the upstream of the luciferase gene, using Lipofectamine 2000 (Invitrogen Corporation) in accordance with the attached operating procedure. Subsequently, the cells were cultured in an RPMI1640 medium containing 10% FBS, 100 U/mL penicillin, 100 μg/mL streptomycin, and 0.5 mg/mL G418 to produce SW480 cells having the luciferase gene, the expression of which is regulated by NRE, stably introduced therein (SW480/NRE-Luc cells). Likewise, SW480 cells were transfected with pGL3-Control Vector (Promega Corporation), which is a reporter vector in which the SV40 promoter is integrated into the upstream of the luciferase gene, to produce SW480 cells having the luciferase gene, the expression of which is regulated by the SV40 promoter, stably introduced therein (SW480/SV40-Luc cells). The SW480/NRE-Luc cells or the SW480/SV40-Luc cells were suspended in an RPMI1640 medium containing 10% FBS, 100 U/mL penicillin, and 100 μg/mL streptomycin (10% FBS/RPMI1640), and then seeded in a 96-well microplate, followed by culturing under conditions of 5% CO2 and at 37° C. (5000 cells/well). After an overnight culture, the compound of the present invention was added, followed by culturing for one hour. Further, 50 ng/mL TNFα (Sigma-Aldrich Corporation) was added, followed by culturing for four hours. Subsequently, a Steady-Glo Luciferase Assay reagent (Promega Corporation) was added, and the luminescent intensity was detected by SpectraMax M5e (Molecular Devices, Inc.) to measure the intracellular luciferase activity. It is to be noted that the action of the compound of the present invention on the NFκB activity or the SV40 promoter activity was shown as IC50 values (the concentration of a test compound needed for 50% inhibition of the induction of the luciferase expression).
(In general: A reporter such as luciferase makes a cellular process visible.)

The test system of series [4] is human colon cancer SW480 cells. As to the kind of experiment: Inhibitory action on the proliferation of SW480 cells. Format: cell-based. The note with it: 48 hours culture, TetraColor ONE; for IC50: Homo sapiens, SW480. As to the method:
as §1

Series [5] deals with NFκB. Nature of the series: NFκB luciferase reporter assay in SW480/NRE-Luc cells stimulated with TNFα. The note with it: for NFκB inhibitory activity IC50: SW480/NRE-Luc cells, 50 ng/mL TNFα, luciferase expression; for IC50: Homo sapiens, SW480, read-out: NFκB inhibitory activity IC50. Format: cell-based, human.
Source text: as §2

The test system of series [6] is human colon cancer HT-29 cells. As to the kind of experiment: Inhibitory action on the proliferation of HT-29 cells. The note with it: 96 hours culture, TetraColor ONE; for IC50: Homo sapiens, HT-29. Format: cell-based. As to the method: as §1
Series [7] relates to mouse fibrosarcoma Meth A cells. Nature of the series: Antitumor effect in mice transplanted with mouse fibrosarcoma Meth A cells. Type of series: in vivo. The note with it: intravenous on days 1, 5, 9, BALB/c mice, tumor weight on day 21. As to the method:
The antitumor effect of the phenanthroindolizidine alkaloid compound of the present invention in vivo was studied using mice transplanted with mouse fibrosarcoma Meth A cells. Meth A cells were transplanted subcutaneously in the inguinal region of male 7-week-old BALB/c mice (2.5×10^5 cells/mouse). Subsequently, on days 1, 5, and 9, the compound of the present invention was intravenously administered. To a control group, physiological saline as a solvent, was administered. On day 21 after the cell transplantation, tumor was excised and measured for its weight, and subsequently a tumor growth-inhibition rate IR (%) was obtained by the following formula. Tumor growth-inhibition rate IR(%)=(1−the weight of the tumor in an administration group/the weight of the tumor in a control group)×100

Series [8] has as its system human colon cancer HCT116 cells. Nature of the series: Antitumor effect in mice transplanted with human colon cancer HCT116 cells. Type of series: in vivo. To be noted: intraperitoneal on days 1 to 5 and 8 to 12, BALB/c nude mice, tumor weight on day 21. An excerpt: The antitumor effect of the phenanthroindolizidine alkaloid compound of the present invention in vivo was studied using mice transplanted with human colon cancer HCT116 cells. HCT116 cells were transplanted subcutaneously in the inguinal region of male 6-week-old BALB/c nude mice (2×10^6 cells/mouse). On days 1 to 5 and on days 8 to 12 after the time at which the estimated tumor volume obtained by 1/2ab^2 (a and b indicate the major axis and the minor axis of tumor, respectively) reached approximately 100 mm^3 (day 0), the compound of the present invention was administered (intraperitoneal administration). To a control group, a 5% glucose solution as a solvent, was administered. On day 21, tumor was excised and measured for its weight, and subsequently a tumor proliferation-inhibition rate IR (%) was calculated.

Marks after values point to notes of the source that are not given here. Some results are limits rather than exact numbers.

Regarding `COc1cc2c3c(c4ccc(O)cc4c2cc1OC)[C@H](OC(C)=O)[C@@H]1CCCN1C3.Cl` [Compound 5, acetic acid(12aS,13S)-3-hydroxy-6,7-dimethoxy-9,10,11,12,12a,13-hexahydro-9a-aza-cyclopenta[b]triphenylene-13-yl ester hydrochloride], the Mortality rate in series [1] (total dose 25 mg/kg) and in series [1] (total dose 50 mg/kg) was 0/5 in each case. The “A549 proliferation inhibitory action IC50” value in series [2] was determined as 0.0005 µg/mL. The “SV40 promoter inhibitory activity IC50” value in series [3] was more than 0.1 µg/mL. Also, in series [4], the “SW480 proliferation inhibitory action IC50” value was 0.005 µg/mL. Also, the “NFκB inhibitory activity IC50” value in series [5] came to 0.027 µg/mL. For the same compound, the “HT-29 proliferation inhibitory action IC50” value in series [6] turned out to be 0.0023 µg/mL.
One may read the IC50 as the concentration at which inhibition is half-maximal. Turning to `COc1cc2c3c(c4ccc(O)cc4c2cc1OC)C(O)C1(C)CCCN1C3.Cl` (centres unmarked) [Compound 6, 6,7-dimethoxy-12a-methyl-9,10,11,12,12a,13-hexahydro-9a-aza-cyclopenta[b]triphenylene-3,13-diol hydrochloride], the Mortality rate in series [1] (total dose 25 mg/kg) and in series [1] (total dose 50 mg/kg) was 0/5 each time. The IC50 was 0.757 µg/mL in series [2]; more than 10 µg/mL in series [3]; 3.12 µg/mL in series [4]; 1.92 µg/mL in series [5]; 0.839 µg/mL in series [6].
As to `Cl.Oc1ccc2c3c(c4cc5c(cc4c2c1)OCO5)CN1CCC[C@H]1[C@H]3O` [Compound 8, (12aS,13S)-6,7-methylenedioxy-9,10,11,12,12a,13-hexahydro-9a-aza-cyclopenta[b]triphenylene-3,13-diol hydrochloride], the Mortality rate in series [1] (total dose 25 mg/kg) and in series [1] (total dose 50 mg/kg) was 0/5 each time. Further, the IC50 in series [2] is 0.0193 µg/mL; in series [3], more than 10 µg/mL; in series [4], 0.0267 µg/mL; in series [5], 0.0084 µg/mL; in series [6] it was 0.0469 µg/mL.
As for `CC1(C)Oc2cc3c4c(c5ccc(O)cc5c3cc2O1)[C@H](O)[C@@H]1CCCN1C4.Cl` [Compound 9, (12aS,13S)-6,7-isopropylidenedioxy-9,10,11,12,12a,13-hexahydro-9a-aza-cyclopenta[b]triphenylene-3,13-diol hydrochloride], the Mortality rate in series [1] (total dose 25 mg/kg) and in series [1] (total dose 50 mg/kg) was 0/5 in each case. The “A549 proliferation inhibitory action IC50” value in series [2] was 0.3502 µg/mL. Besides, the “SV40 promoter inhibitory activity IC50” value in series [3] was more than 10 µg/mL. Besides, in series [4], the “SW480 proliferation inhibitory action IC50” value is 1.955 µg/mL. For the same compound, the “NFκB inhibitory activity IC50” value in series [5] amounted to 0.5216 µg/mL. Also, in series [6], the “HT-29 proliferation inhibitory action IC50” value was found to be 0.184 µg/mL.
Regarding `CCOc1cc2c3c(c4ccc(O)cc4c2cc1OCC)[C@H](O)[C@@H]1CCCN1C3.Cl` [Compound 10, (12aS,13S)-6,7-diethoxy-9,10,11,12,12a,13-hexahydro-9a-aza-cyclopenta[b]triphenylene-3,13-diol hydrochloride], the Mortality rate in series [1] (total dose 25 mg/kg) and in series [1] (total dose 50 mg/kg) was 0/5 in each case. The IC50 was 0.00027 µg/mL in series [2]; more than 0.1 µg/mL in series [3]; 0.0067 µg/mL in series [4]; 0.0041 µg/mL in series [5]; 0.00047 µg/mL in series [6].
Consider `COc1cc2c3c(c4ccc(O)cc4c2cc1OC)C[C@H]1CCCN1C3.Cl` [Compound 12, (R)-6,7-dimethoxy-9,10,11,12,12a,13-hexahydro-9a-aza-cyclopenta[b]triphenylene-3-ol hydrochloride], for which the “Tumor growth inhibition rate IR” value in series [7] (total dose 25 mg/kg) was 25.3%; in series [7] (total dose 50 mg/kg) it was 58.8** %. In addition, the Mortality rate in series [1] (total dose 25 mg/kg) and in series [1] (total dose 50 mg/kg) was 0/5 each time. In addition, the half-inhibitory concentration (IC50) in series [2] is 0.0127 µg/mL; in series [3], more than 10 µg/mL; in series [4] it was 0.0504 µg/mL; in series [5], 0.0181 µg/mL; in series [6] it was 0.0504 µg/mL.
With `Cl.Oc1ccc2c3c(c4cc5c(cc4c2c1)OCO5)CN1CCC[C@H]1C3` [Compound 13, (S)-6,7-methylenedioxy-9,10,11,12,12a,13-hexahydro-9a-aza-cyclopenta[b]triphenylene-3-ol hydrochloride], the entries for the “Tumor growth inhibition rate IR” value in series [7] (total dose 25 mg/kg) and in series [7] (total dose 50 mg/kg) were 45.6* % and 31.5%, respectively. The Mortality rate in series [1] (total dose 25 mg/kg) and in series [1] (total dose 50 mg/kg) was 0/5 in each case. Further, the IC50 in series [2] is 0.0482 µg/mL; in series [3], more than 10 µg/mL; in series [4], 0.0387 µg/mL; in series [5], 0.0484 µg/mL; in series [6], 0.261 µg/mL.
As for `COc1cc2c3c(c4ccc(O)cc4c2cc1OC)CN1CCC[C@H]1[C@H]3O.Cl` [Compound 15, (12aS,13S)-2,3-dimethoxy-9,10,11,12,12a,13-hexahydro-9a-aza-cyclopenta[b]triphenylene-6,13-diol hydrochloride], the Mortality rate in series [1] (total dose 25 mg/kg) and in series [1] (total dose 50 mg/kg) was 0/5 throughout. The IC50 in series [2] was 0.034 µg/mL; in series [3] it was more than 10 µg/mL; in series [4], 0.0042 µg/mL; in series [5], 0.002 µg/mL; in series [6], 0.0566 µg/mL.
For “(S)-6,7-dimethoxy-9,10,11,12,12a,13-hexahydro-9a-aza-cyclopenta[b]triphenylene-3-ol methanesulfonate [Compound 16]”, the “Tumor growth inhibition rate IR” value in series [8] (total dose 100 mg/kg) is listed as 35.7*** %; in series [8] (total dose 200 mg/kg), 48.7*** %.
